Measurements reported in patent US7279187B2, “Mineral fortification systems” (The Procter & Gamble Company, priority 2003, dated 2007).

Assay: Colour development of iron source when added to water or other aqueous solutions
Format: physicochemical
From the text: Such a color can change the color appearance the food or beverage to which FERROCHEL has been added. In the case of many foods and beverages, this color change would be unacceptable.

NCC(=O)[O-].NCC(=O)[O-].[Fe+2] [FERROCHEL]
Colour imparted when added to water: imparts relatively quickly a deep rusty yellow color
